The source of these data is patent US8633226B2, “Piperidinyl derivative as a modulator of chemokine receptor activity” (Bristol-Myers Squibb Company, priority 2008, dated 2014).

Where two headings read alike, the source gives them in different places.

Series [1] can be described thus: Electrocardiography in anesthetized rabbits. In kind it is in vivo. The note with it: male, blood, anesthetized rabbit, iv. The protocol:
(§1) A dose-response study of test compound was conducted in anesthetized rabbits to assess the cardiac electrophysiologic profile established in the cellular ion channel assays.
(§2) Experiments were performed in propofol-fentanyl anesthetized closed-chest male rabbits. A body surface electrocardiogram (ECG) and an intra-cardiac His-bundle electrogram were continuously monitored and recorded during the studies, using a PoNeMah system and a Prucka electrophysiological recording system, respectively. Test compound was prepared on the day of study in a vehicle of PEG400:ethanol:water (1:1:1) at a dosing concentration of 30 mg/mL. Test compound (n=3) or vehicle (n=3) was given intravenously over 5 minutes via an infusion pump at incremental doses of 3, 10 and 30 mg/kg. The interval between doses was 10 minutes, allowing for a 5-minute test agent infusion and a 5-minute rest period. Blood was sampled at baseline (pre-drug infusion) and immediately at the end of each infusion. For the 30 mg/kg dose, additional blood samples were taken at 10, 20 and 30 minutes after the end of infusion.
(§3) PR interval, QRS duration and QT interval were averaged from a 1 minute ECG recording period at time of blood sampling. QT interval was corrected for heart rate effects using both Fridericia (QTcf) and Van der Water (QTcv) formulae. AH and HV intervals, representing A-V node conduction and His-Purkinje conduction, respectively, were assessed by manual measurements from the His-bundle electrogram. Data were expressed as percent change from pre-drug baseline (mean±SEM) for PR, QRS, AH and HV intervals as well as delta change from the pre-drug infusion baseline (mean±SEM) for QTc intervals. Changes of ≧10% in PR, QRS, and AH intervals, and 20% in HV interval, as well as >10 ms in QTc interval are considered significant based on experience with the model.

A further series deals with anesthetized rabbits. Put plainly: Electrocardiography in anesthetized rabbits. In kind it is in vivo. To be noted: anesthetized rabbit. As for the experimental part:
as §1, §2, §3

A short description of series [2]: In vitro metabolism assay, human liver microsomes, Assay Conditions B. In kind it is in vitro ADME. The note with it: 10 min, 3 μM, pH 7.4. The protocol: Test compound is received as 20 mM in DMSO. Compound is diluted to create a 300 μM acetonitrile (ACN) solution containing 1.5% DMSO, which is then used as a 100× stock for incubation with microsomes. Each compound is tested in duplicate separately in each of three species in the Metabolic Stability-Human, Rat, Mouse assay suite or individual species in the Metabolic Stability-Dog or Metabolic Stability-Monkey suites. Compound, NADPH and liver microsome solutions are combined for incubation in three steps: • 1. 450 μL of liver microsome suspension, protein concentration of 1 mg/mL in 100 mM NaPi, pH. 7.4, 6.6 mM MgCl2 buffer, are pre-warmed at 37° C. • 2. 5 μl of 300 μM compound (98.5% CAN, 1.5% DMSO) is added to the same tube. • 3. The reaction is initiated by the addition of 50 μl of pre-warmed 5 mM NADPH solution in 100 mM NaPi, pH 7.4.
Reaction components are mixed well and 150 μL removed to quench/stop solution immediately for the zero-minute time point. Reactions are incubated at 37° C. for 10 minutes and then an additional 150 μL removed from incubation. Aliquots removed are combined with 300 μL ACN which contains 100 μM DMN as a UV standard for detection.
Quenched mixtures are centrifuged at 1500 rpm (˜500×g) in an Allegra X-12 centrifuge, SX4750 rotor (Beckman Coulter Inc., Fullerton, Calif.) for fifteen minutes to pellet denatured microsomes. A volume of 110 μl of supernatant extract, containing the mixture of parent compound and its metabolites, is then transferred to a separate 96-well plate for UV-LC/MS-MS analysis to determine the percent of parent compound that is remaining in the mixture.
(In general: Liver microsomes are a subcellular fraction often used to study metabolism.)

The target of series [3] is human cardiac sodium channel SCN5A (Homo sapiens (Human), UniProt Q14524). The series can be described thus: Sodium channel whole-cell patch-clamp assay. It is filed as cell-based. To be noted: HEK-293 cells expressing human cardiac sodium channel SCN5A, pH 7.4, protein-free buffer, read-out: Na, % inh. As for the experimental part:
Whole-cell patch-clamp was used to directly measure inward sodium currents in HEK-293 cells expressing the human cardiac sodium channel, SCN5A. After reach steady-state effect in the presence of drug, rate-dependence was assessed by stimulation at frequencies of 1 Hz and 4 Hz. Experiments were carried out using an aqueous buffer at pH 7.4 and at room temperature. There is no protein in the buffer and drug concentrations reported are nominal free drug levels. Test article was evaluated up to 10 μM (protein-free buffer). Rate-dependence of inhibition was assessed by stimulation at frequencies of 1 Hz and 4 Hz.

Series [4] is described as follows: In vitro metabolism assay, human liver microsomes, Assay Conditions A. It is filed as in vitro ADME. The note with it: 0.5 μM compound, 10 minutes, 37° C. The protocol:
Test compound is received as a 3.5 mM stock solution in 100 percent DMSO. Compound is diluted to create a 50 μM acetonitrile (ACN) solution containing 1.4% DMSO, which is then used as a 100× stock for incubation with microsomes. Each compound is tested in duplicate separately in each of three species in the Metabolic Stability-Human, Rat, and Mouse assay suite or as individual species in the Metabolic Stability-Dog or Metabolic Stability-Monkey suites. Compound, NADPH and liver microsome solutions are combined for incubation in three steps:
152 μL of liver microsome suspension, protein concentration of 1.1 mg/mL in 100 mM NaPi, pH 7.4, 6.6 mM MgCl2 buffer, is pre-warmed at 37° C.
• 1) 1.7 μL of 50 μM compound (98.6% ACN, 1.4% DMSO) is added to the same tube and pre-incubated at 37° C. for 5 minutes. • 2) The reaction is initiated by the addition of 17 μL of pre-warmed 10 mM NADPH solution in 100 mM NaPi, pH 7.4. • 3) Reaction components are mixed well, and 75 μL are immediately transferred into 150 μl quench/stop solution (zero-time point, T0). Reactions are incubated at 37° C. for 10 minutes and then an additional 75 μL aliquot is transferred into 150 μL quench solution. Acetonitrile containing 100 μM DMN (a UV standard for injection quality control), is used as the quench solution to terminate metabolic reactions. • 4) Quenched mixtures are centrifuged at 1500 rpm (˜500×g) in an Allegra X-12 centrifuge, SX4750 rotor (Beckman Coulter Inc., Fullerton, Calif.) for fifteen minutes to pellet denatured microsomes. A volume of 90 μL of supernatant extract, containing the mixture of parent compound and its metabolites, is then transferred to a separate 96-well plate for UV-LC/MS-MS analysis to determine the percent of parent compound that is remaining in the mixture. • 5)

Sequence of human cardiac sodium channel SCN5A (Q14524 whole entry): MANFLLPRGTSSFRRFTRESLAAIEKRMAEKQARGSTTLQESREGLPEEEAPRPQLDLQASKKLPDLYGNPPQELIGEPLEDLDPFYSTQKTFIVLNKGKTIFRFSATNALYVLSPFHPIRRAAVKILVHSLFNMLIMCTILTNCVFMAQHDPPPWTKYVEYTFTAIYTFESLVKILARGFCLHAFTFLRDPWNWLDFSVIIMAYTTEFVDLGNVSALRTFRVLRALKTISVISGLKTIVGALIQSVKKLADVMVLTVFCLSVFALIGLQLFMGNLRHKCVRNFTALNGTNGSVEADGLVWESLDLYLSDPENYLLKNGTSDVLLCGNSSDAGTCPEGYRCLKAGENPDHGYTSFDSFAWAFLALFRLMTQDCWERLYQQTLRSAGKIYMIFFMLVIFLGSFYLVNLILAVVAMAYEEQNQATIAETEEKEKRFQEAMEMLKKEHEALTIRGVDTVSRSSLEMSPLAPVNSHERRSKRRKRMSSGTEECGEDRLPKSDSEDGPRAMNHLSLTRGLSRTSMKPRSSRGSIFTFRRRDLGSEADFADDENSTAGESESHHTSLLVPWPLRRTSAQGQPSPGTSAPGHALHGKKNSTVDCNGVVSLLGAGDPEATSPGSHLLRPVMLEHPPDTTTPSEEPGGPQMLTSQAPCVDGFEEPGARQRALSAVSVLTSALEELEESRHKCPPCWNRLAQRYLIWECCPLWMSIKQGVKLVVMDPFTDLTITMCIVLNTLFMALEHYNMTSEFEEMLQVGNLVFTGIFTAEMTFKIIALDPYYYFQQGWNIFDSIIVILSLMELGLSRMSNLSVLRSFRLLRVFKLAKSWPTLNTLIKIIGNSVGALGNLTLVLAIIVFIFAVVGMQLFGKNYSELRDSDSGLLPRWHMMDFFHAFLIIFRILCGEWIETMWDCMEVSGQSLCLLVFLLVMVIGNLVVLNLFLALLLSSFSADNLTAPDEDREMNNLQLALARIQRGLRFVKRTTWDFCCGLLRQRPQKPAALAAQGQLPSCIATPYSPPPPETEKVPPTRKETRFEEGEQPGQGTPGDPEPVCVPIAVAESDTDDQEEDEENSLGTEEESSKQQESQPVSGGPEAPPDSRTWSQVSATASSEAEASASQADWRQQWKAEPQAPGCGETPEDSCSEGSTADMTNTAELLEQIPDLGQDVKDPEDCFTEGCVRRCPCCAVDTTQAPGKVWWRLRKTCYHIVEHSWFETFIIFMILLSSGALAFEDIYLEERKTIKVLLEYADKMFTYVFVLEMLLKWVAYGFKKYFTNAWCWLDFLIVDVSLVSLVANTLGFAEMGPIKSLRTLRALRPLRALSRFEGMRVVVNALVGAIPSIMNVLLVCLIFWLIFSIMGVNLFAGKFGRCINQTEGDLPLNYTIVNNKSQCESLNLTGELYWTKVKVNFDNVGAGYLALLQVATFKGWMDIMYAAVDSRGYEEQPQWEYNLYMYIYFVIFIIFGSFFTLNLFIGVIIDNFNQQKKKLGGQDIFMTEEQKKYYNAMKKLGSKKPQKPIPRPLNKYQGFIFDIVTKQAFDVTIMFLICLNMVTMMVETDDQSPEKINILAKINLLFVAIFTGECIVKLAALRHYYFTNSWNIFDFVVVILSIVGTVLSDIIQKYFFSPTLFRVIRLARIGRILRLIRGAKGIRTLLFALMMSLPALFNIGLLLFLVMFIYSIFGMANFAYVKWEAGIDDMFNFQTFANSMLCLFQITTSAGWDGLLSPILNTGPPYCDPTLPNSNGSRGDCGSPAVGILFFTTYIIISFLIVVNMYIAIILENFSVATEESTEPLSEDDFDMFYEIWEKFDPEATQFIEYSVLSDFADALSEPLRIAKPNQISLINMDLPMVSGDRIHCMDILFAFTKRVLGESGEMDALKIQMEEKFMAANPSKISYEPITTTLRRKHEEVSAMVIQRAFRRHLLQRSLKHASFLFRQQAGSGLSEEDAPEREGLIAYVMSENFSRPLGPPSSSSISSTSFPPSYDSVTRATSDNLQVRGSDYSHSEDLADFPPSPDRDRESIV

For `CC(C)[C@@H](NC(=O)NCC(C)(C)O)C(=O)N1CC[C@](O)(c2ccc(Cl)cc2)C(C)(C)C1` [Compound I], in series [1] (30 mg/kg, read-out: Cmax: Total drug at QT effect dose), the Cmax came to 202 µM. Moreover, in series [1] (NOEL dose 10 mg/kg, read-out: Cmax: Total drug at NOEL dose), the Cmax is 65.2 µM. Further, in the series on anesthetized rabbits (iv infusion), the “NOEL dose (No Observed Effect Level)” value is 10 mg/kg and the “QT effect Dose” value was 30 mg/kg. In addition, the “QTcf, delta” value in the series on anesthetized rabbits (iv infusion, at QT effect dose 30 mg/kg) is recorded as 12 ms. The “Cmax: Free drug at QT effect dose” value with anesthetized rabbits (iv, 30 mg/kg) amounted to 26 µM. Also, the “Cmax: Free drug at NOEL dose” value in the series with anesthetized rabbits (iv, NOEL dose 10 mg/kg) was 8.5 µM. Besides, the “Human Liver Microsomal Metabolism % remaining (Assay Conditions B)” value in series [2] is reported as 100% (B). The inhibition at 10 µM in series [3] worked out at 12%.
On to `CC(C)CC(=O)N[C@@H](C(=O)N1CC[C@](O)(c2ccc(Cl)cc2)C(C)(C)C1)C(C)C` [#466], for which the “Human Liver Microsomal Metabolism % remaining (Assay Conditions A)” value in series [4] worked out at 67%. Moreover, the “Human Liver Microsomal Metabolism % remaining (Assay Conditions B)” value in series [2] was found to be 33%.
Taken in the same sequence, the figures for `CC(C)[C@@H](NC(=O)CC(C)(C)O)C(=O)N1CC[C@](O)(c2ccc(Cl)cc2)C(C)(C)C1` [#1356] were 100% (A)/100% (B) and 100% (A)/100% (B).
For `CC(C)[C@@H](NC(=O)C1CCCC1)C(=O)N1CC[C@](O)(c2ccc(Cl)cc2)C(C)(C)C1` [#460] the same measures were 47% and 16%.
